Measured values as given in patent US8487131B2 (Sanford-Burnham Medical Research Institute, priority 2009, dated 2013).
“Also recorded” adds a separate entry of the source. Each block holds one compound with its values, some of them ahead of it.

What was measured:
[1] = In vitro rat plasma stability; assay type: in vitro ADME
From the text: (§1) Next, we examined the pharmacological properties of the isomers as chirality could greatly affect such properties due to stereoselective metabolism. To test the pharmacological properties of diastereoisomers 11-14, we determined their in vitro rat plasma stability, rat microsomal stability, and cell membrane permeability (Table 4).

[2] = test system: Bax/Bak double knockout MEF cells (MEF/DKO); experiment: Apoptosis, FITC-Annexin V/PI assay, MEF/DKO; assay type: cell-based, mouse; conditions: for toxicity in MEF/DKO cells: 30 μM, FITC-Annexin V/PI
Procedure: Wild-type MEF and DKO/MEF were seeded in 24-well plate at a seeding density of half a million per well (in 1 ml of DMEM medium supplemented by 10% FCS). […] On the following day, floating cells were pooled with adherent cells harvested after brief incubation with 0.25% Trypsin/EDTA solution (Gibco/In-Vitrogen Inc.). Cells were centrifuged and supernatant was discarded, and cell pellet was re-suspended with 0.2 ml of Annexin-V binding buffer, followed by addition of 1 μl Annexin-FITC and 1 μl PI (propidium iodide). The percentage of viable cells was determined by a 3-color FACSort instrument and data analyzed by Flow-Jo program, scoring Annexin V-negative, PI-negative as viable cells.

[3] = test system: H460 cells; experiment: Cell viability, ATP-LITE assay, H460; assay type: cell-based, human; conditions: 72 hours of treatment
Procedure: The activity of the compounds against human cancer cell lines (PC3, H460, H1299) were assessed by using the ATP-LITE assay (PerkinElmer). All cells were seeded in either […] or RPMI1640 medium with 5 mM L-glutamine supplemented with 5% fetal bovine serum (Mediatech Inc.), penicillin and streptomycin (Omega). For maintenance, cells were cultured in 5% FBS. Cells plated into 96 well plates at varying initial densities depending on doubling time. […] Compounds were diluted to final concentrations with 0.1% DMSO. Prior to dispensing compounds onto cells, fresh 5% media was placed into wells. Administration of compounds occurred 24 hours after seeding into the fresh media. Cell viability was evaluated using ATP-LITE reagent (PerkinElmer) after 72 hours of treatment. Data were normalized to the DMSO control-treated cells using Prism version 5.01 (Graphpad Software).

[4] = test system: M2182 cells; experiment: Prostate cancer xenograft in athymic nude mice; assay type: in vivo, mouse; conditions: for inhibitory effect of tumor size compared with the control group: all doses, i.p. every 2 days
Procedure: Cells were then selected for 2 weeks in 200 μg/ml of hygromycin, and individual colonies were isolated, expanded, and maintained in 5 μg/m1 hygromycin. The overexpression of luciferase in these clones was confirmed by measuring luciferase activity.
M2182-Luc cells (1×10^6) were injected s.c. in 100 μL of PBS in the left and right flanks of male athymic nude mice (NCR^nu/nu, 4 weeks old, 20 g body weight) as described previously.^40 After establishing visible tumors of ˜75-mm^3, requiring ˜5-6 days, compound dissolved in 500 μL of solvent (ethanol/Cremophor EL/saline=10:10:80) were injected intraperitoneally (i.p.). The injections were given every 2 days for a total of nine injections. […] A minimum of five animals was used per experimental condition. For in vivo imaging of tumors, the mice were anesthetized and injected i.p. with 150 mg/kg luciferin and light emitted from each tumor was determined using a Xenogen system with CCD camera with an integration time of 1 min. Luminescence measurements were made using Living Image software (version 2.50.1; Xenogen). At the end of the experiment, the animals were sacrificed, and the tumors were removed and photographed.

[5] = test system: MDA-MB-231 breast cancer cells; conditions: reference 13; read-out: EC50 in killing MDA-MB-231 breast cancer cells; cited from earlier work
[6] = test system: cancer cells that overexpress Mcl-1; conditions: references 32, 36; cited from earlier work
[7] = test system: BP3 cell line; experiment: Apoptosis, Annexin V-FITC and propidium iodide assay, BP3; assay type: cell-based, human
Procedure: The apoptotic activity of the compounds against BP3 cells was assessed by staining with Annexin V- and propidium iodide (PI). BP3 cell line was cultured in RPMI 1640 medium (Mediatech Inc., Herndon, Va. 20171) containing 10% fetal bovine serum (Mediatech Inc., Herndon, Va. 20171) and Penicillin/Streptomycin (Mediatech Inc., Herndon, Va. 20171). […] The percentage of viable cells was determined by FITC-Annexin V- and propidium iodide (PI)-labeling, using an Apoptosis Detection kit (BioVision Inc.), and analyzing stained cells by flow cytometry (FACSort; Bectin-Dickinson, Inc.; Mountain View, Calif.). Cells that were annexin-V-negative and PI-negative were considered viable.

[8] = test system: Bcl-2 transgenic mice (B6Bcl2); experiment: Bcl-2 transgenic mice, spleen weight; assay type: in vivo, mouse; conditions: for in vivo activity in Bcl-2 transgenic mice: single i.p. 42 mg/kg
Procedure: Transgenic mice expressing Bcl-2 have been described as the B6 line.^48 The BCL-2 transgene represents a minigene version of a t(14;18) translocation in which the human BCL-2 gene is fused with the immunoglobulin heavy-chain (IgH) locus and associated IgH enhancer. The transgene was propagated on the Balb/c background.
After 24 hours, B6Bcl2 mice were sacrificed by intraperitoneal injection of lethal dose of Avertin. Spleen was removed and weighed.

[9] = rat, 40 min
From the text: as §1

[10] = molecular target: T1, Bcl-XL (Homo sapiens, UniProt Q07817); experiment: Isothermal Titration Calorimetry assay (ITC); assay type: binding; conditions: Kd ratio versus 12-14
T1 sequence (Q07817 whole entry): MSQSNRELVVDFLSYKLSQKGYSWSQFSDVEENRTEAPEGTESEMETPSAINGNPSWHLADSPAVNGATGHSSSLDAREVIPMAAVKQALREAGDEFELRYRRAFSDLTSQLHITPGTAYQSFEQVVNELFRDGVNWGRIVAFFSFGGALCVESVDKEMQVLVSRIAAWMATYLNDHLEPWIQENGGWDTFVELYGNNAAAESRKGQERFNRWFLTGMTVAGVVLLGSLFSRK

[11] = test system: wild type mouse embryonic fibroblast cells (MEF/WT); experiment: Apoptosis, FITC-Annexin V/PI assay, MEF/WT; assay type: cell-based; conditions: 30 μM
Procedure: Wild-type MEF and DKO/MEF were seeded in 24-well plate at a seeding density of half a million per well (in 1 ml of DMEM medium supplemented by 10% FCS). Next day, compound was added to wild-type and DKO cells at final concentration of 0, 2.5, 5.0, 7.5, 10 and 30 μM. On the following day, floating cells were pooled with adherent cells harvested after brief incubation with 0.25% Trypsin/EDTA solution (Gibco/In-Vitrogen Inc.). Cells were centrifuged and supernatant was discarded, and cell pellet was re-suspended with 0.2 ml of Annexin-V binding buffer, followed by addition of 1 μl Annexin-FITC and 1 μl PI (propidium iodide). The percentage of viable cells was determined by a 3-color FACSort instrument and data analyzed by Flow-Jo program, scoring Annexin V-negative, PI-negative as viable cells.

[12] = molecular target: Mcl-1 (Homo sapiens, UniProt Q07820); experiment: 2D [15N,1H]-TROSY NMR binding, Mcl-1; conditions: 2D TROSY, ligand/protein ratio of 2:1
Mcl-1, sequence (Q07820 whole entry): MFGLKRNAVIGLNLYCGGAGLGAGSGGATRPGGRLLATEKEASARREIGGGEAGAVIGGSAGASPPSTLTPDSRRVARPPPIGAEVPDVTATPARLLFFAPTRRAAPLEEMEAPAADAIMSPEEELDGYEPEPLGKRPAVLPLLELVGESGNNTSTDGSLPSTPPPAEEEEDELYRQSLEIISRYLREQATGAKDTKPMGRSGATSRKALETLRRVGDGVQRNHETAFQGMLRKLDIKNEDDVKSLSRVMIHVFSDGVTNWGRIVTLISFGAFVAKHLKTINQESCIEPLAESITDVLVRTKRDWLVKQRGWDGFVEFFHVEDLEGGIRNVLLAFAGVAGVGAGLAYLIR

[13] = Chemical stability at different temperatures; assay type: physicochemical; conditions: compared to 12-14
[14] = Cell membrane permeability (PAMPA, LogPe); assay type: in vitro ADME; conditions: compared to 12-14
From the text: as §1

[15] = molecular target: T1, Bcl-XL; experiment: NMR binding assays (1D 1H-NMR, 2D [15N,1H]-TROSY), Bcl-XL; conditions: 2D TROSY at ligand/protein ratio 1:1

Structure (SMILES): Cc1cc2c(C(=O)NCC(C)c3ccccc3)c(O)c(O)cc2c(O)c1-c1c(C)cc2c(C(=O)NCC(C)c3ccccc3)c(O)c(O)cc2c1O (racemic) [Compound 4]
cytotoxicity in MEF/DKO cells compared to isomer 11 ([2]; 3-30 μM): higher cytotoxicity in MEF/DKO cells | inhibitory effect of tumor size ([4]; 10 mg/kg i.p. every 2 days, nine injections): weak inhibitory effect of tumor size | inhibition of tumor growth in both flanks ([4]; 25 mg/kg i.p. every 2 days, nine injections): near complete inhibition of tumor growth | inhibitory effect of tumor size compared with the control group [4]: marked inhibitory effect of tumor size

Structure (SMILES): Cc1cc2c(C(C)C)c(O)c(O)c(C=O)c2c(O)c1-c1c(C)cc2c(C(C)C)c(O)c(O)c(C=O)c2c1O [(+) 1]
EC50 [5]: ~10 µM

Structure (SMILES): CN(C)CC[C@H](CSc1ccccc1)Nc1ccc(S(=O)(=O)NC(=O)c2ccc(N3CCN(Cc4ccccc4-c4ccc(Cl)cc4)CC3)cc2)cc1[N+](=O)[O-] [ABT-737]
effectiveness against cancer cells that overexpress Mcl-1 [6]: not effective | apoptosis induction / cytotoxic activity against BP3 cell line [7]: no cytotoxic activity

Structure (SMILES): Cc1cc2c(C(=O)NC[C@@H](C)c3ccccc3)c(O)c(O)cc2c(O)c1-c1c(C)cc2c(C(=O)NC[C@H](C)c3ccccc3)c(O)c(O)cc2c1O (atropisomer, axis not shown) [Compound 11]
in vivo activity in Bcl-2 transgenic mice [8]: superior in vivo activity | spleen weight reduction ([8]; single i.p. injection at 42 mg/kg, 24 hours): more than 30% | Plasma stability (T = 1 h) [1]: 41% | times more potent than other isomers 12-14 in ITC assay [10]: 4-20 times | wild type MEF cells killed [11]: ~70% | cytotoxicity against bax−/−bak−/− cells (summary statement) [2]: less cytotoxicity; also recorded: little cytotoxicity | toxicity in MEF/DKO cells [2]: slight toxicity | NMR binding to Mcl-1 [12]: significant binding | chemical stability [13]: better chemical stability | tumor growth inhibited to % of the tumor volume in the control group ([4]; 3 mg/kg i.p. every 2 days, nine injections): ~60% | inhibition of tumor growth in both flanks ([4]; 5 mg/kg i.p. every 2 days, nine injections): near complete inhibition of tumor growth | inhibitory effect of tumor size compared with the control group [4]: marked inhibitory effect of tumor size | cell membrane permeability [14]: superior cell membrane permeability | microsomal stability [9]: relatively good microsomal stability | NMR binding to Bcl-XL [15]: larger chemical shift perturbations; also recorded: low to submicromolar binding affinity

Further lines, with some results ahead:

Plasma stability (T = 1 h) [1]: 41% | EC50 [3]: 0.8 ± 0.09 µM
Structure (SMILES): Cc1cc2c(C(=O)NCC(C)c3ccccc3)c(O)c(O)cc2c(O)c1-c1c(C)cc2c(C(=O)NCC(C)c3ccccc3)c(O)c(O)cc2c1O (single isomer, unassigned) [Compound 14]
toxicity in MEF/DKO cells [2]: almost equally effective in killing both MEF/WT and MEF/DKO

Plasma stability (T = 1 h) [1]: 42%
Structure (SMILES): Cc1cc2c(C(=O)NCC(C)c3ccccc3)c(O)c(O)cc2c(O)c1-c1c(C)cc2c(C(=O)NCC(C)c3ccccc3)c(O)c(O)cc2c1O (single isomer, unassigned) [Compound 13]

Plasma stability (T = 1 h) [1]: 28%
Structure (SMILES): Cc1cc2c(C(=O)NCC(C)c3ccccc3)c(O)c(O)cc2c(O)c1-c1c(C)cc2c(C(=O)NCC(C)c3ccccc3)c(O)c(O)cc2c1O (single isomer, unassigned) [Compound 12]
in vivo activity in Bcl-2 transgenic mice [8]: weak in vivo activity | plasma stability ([1]; compared to other diastereoisomers): decreased plasma and microsomal stability | microsomal stability [9]: decreased plasma and microsomal stability
